Source: PubChem BioAssay AID248 (DTP/NCI, 2004)
Where “and” joins values, the source holds several entries; their conditions need not be identical. Equal entries are not always repeated. Toxic doses and inconclusive results are not listed.

System: L1210 leukemia ip in BDF1 mice, survival T/C
Experiment: NCI In Vivo Anticancer Drug Screen. Data for tumor model L1210 Leukemia (intraperitoneal) in B6D2F1 (BDF1) mice
Conditions: endpoint: mean survival time, higher = longer survival
Outline: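 Tumor was transplanted into mice, which were then dosed with test compound or vehicle alone. Survival was recorded for each group, and the treated figure was expressed relative to the control figure.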

[1] = dose: 100.0 mg/kg/injection, schedule: Q01DX001 (ip), vehicle: saline with Tween-80
[2] = dose: 200.0 mg/kg/injection, schedule: Q01DX001 (ip), vehicle: saline with Tween-80
[3] = dose: 400.0 mg/kg/injection, schedule: Q01DX001 (ip), vehicle: saline with Tween-80
[4] = dose: 100.0 mg/kg/injection, schedule: Q01DX009 (ip), vehicle: saline with Tween-80
[5] = dose: 200.0 mg/kg/injection, schedule: Q01DX009 (ip), vehicle: saline with Tween-80
[6] = dose: 400.0 mg/kg/injection, schedule: Q01DX009 (ip), vehicle: saline with Tween-80
[7] = dose: 100.0 mg/kg/injection, schedule: Q01DX001 (ip), vehicle: other
[8] = dose: 200.0 mg/kg/injection, schedule: Q01DX001 (ip), vehicle: other
[9] = dose: 400.0 mg/kg/injection, schedule: Q01DX001 (ip), vehicle: other

CCOC(=O)C1(CCCBr)CCCCC1=O (stereo not drawn)
T/C [1]: 107 % of control
T/C [2]: 102 % of control
T/C [3]: 104 % of control

CCOC(=O)C(C(C)=O)c1cc(NS(=O)(=O)c2ccccc2)ccc1O (stereo not drawn)
T/C [4]: 95 % of control
T/C [5]: 96 % of control
T/C [6]: 93 % of control

Nc1nc([Se])c2ncn(C3OC(CO)C(O)C3O)c2n1 (stereo not drawn)
T/C (dose: 10.0 mg/kg/injection, schedule: Q01DX009 (ip), vehicle: saline): 179 % of control
T/C (dose: 12.5 mg/kg/injection, schedule: Q01DX009 (ip), vehicle: saline): 208 % of control and 213 % of control
T/C (dose: 20.0 mg/kg/injection, schedule: Q01DX009 (ip), vehicle: saline): 182 % of control
T/C (dose: 25.0 mg/kg/injection, schedule: Q01DX009 (ip), vehicle: saline): 201 % of control and 229 % of control
T/C (dose: 50.0 mg/kg/injection, schedule: Q01DX009 (ip), vehicle: saline): 91 % of control

CCCCP(=O)(CCCC)CCP(=O)(CCCC)CCCC
T/C (dose: 100.0 mg/kg/injection, schedule: Q04DX003 (ip), vehicle: saline with Tween-80): 88 % of control
T/C (dose: 200.0 mg/kg/injection, schedule: Q04DX003 (ip), vehicle: saline with Tween-80): 97 % of control

CCOC(=O)N1C2C(c3ccccc3)=NC(C)(C)N2C(c2ccc([N+](=O)[O-])cc2)N1C(=O)OCC (stereo not drawn)
T/C [7]: 93 % of control
T/C [8]: 102 % of control
T/C [9]: 91 % of control

Nc1ncnc2nc(-c3ccccc3)[nH]c12
T/C (dose: 25.0 mg/kg/injection, schedule: Q04DX002 (ip), vehicle: Klucel (hydroxypropylcellulose) (HPC)): 102 % of control
T/C (dose: 50.0 mg/kg/injection, schedule: Q04DX002 (ip), vehicle: Klucel (hydroxypropylcellulose) (HPC)): 94 % of control
T/C (dose: 100.0 mg/kg/injection, schedule: Q04DX002 (ip), vehicle: Klucel (hydroxypropylcellulose) (HPC)): 91 % of control

CC1CCCC(C)N1N (stereo not drawn)
T/C [1]: 97 % of control
T/C [2]: 93 % of control
T/C [3]: 95 % of control

C=CCc1ccc(OC(=O)Nc2cc(Cl)ccc2OC)c(OC)c1
T/C [1]: 102 % of control
T/C [4]: 90 % of control
T/C (dose: 100.0 mg/kg/injection, schedule: Q04DX002 (ip), vehicle: saline with Tween-80): 101 % of control and 91 % of control
T/C [2]: 90 % of control
T/C [5]: 96 % of control
T/C (dose: 200.0 mg/kg/injection, schedule: Q04DX002 (ip), vehicle: saline with Tween-80): 95 % of control
T/C [3]: 90 % of control
T/C [6]: 95 % of control
T/C (dose: 400.0 mg/kg/injection, schedule: Q04DX002 (ip), vehicle: saline with Tween-80): 87 % of control and 90 % of control

Cc1ccc(S(=O)(=O)OCC(C)(C)NC(=O)c2ccc([N+](=O)[O-])cc2)cc1
T/C [1]: 91 % of control
T/C [2]: 105 % of control
T/C [3]: 91 % of control

Cc1ccc(N(CCCl)CCCl)cc1NC(=O)c1ccccc1
T/C [7]: 102 % of control
T/C [8]: 102 % of control
T/C [9]: 109 % of control

CC(=O)OC1CCCc2c(O)c3c(c(O)c21)C(=O)c1ccccc1C3=O (stereo not drawn)
T/C (dose: 100.0 mg/kg/injection, schedule: Q01DX001 (ip), vehicle: saline): 93 % of control
T/C (dose: 200.0 mg/kg/injection, schedule: Q01DX001 (ip), vehicle: saline): 93 % of control
T/C (dose: 400.0 mg/kg/injection, schedule: Q01DX001 (ip), vehicle: saline): 91 % of control

CO/C=C1\Cc2cc(OC)c(OC)cc2C1=O
T/C [4]: 102 % of control
T/C [5]: 104 % of control
T/C [6]: 94 % of control

C=Cc1ccccc1 (tested in a mixture with another compound)
T/C (dose: 75.0 mg/kg/injection, schedule: Q01DX001 (ip), vehicle: other): 101 % of control
T/C (dose: 150.0 mg/kg/injection, schedule: Q01DX001 (ip), vehicle: other): 97 % of control
T/C (dose: 300.0 mg/kg/injection, schedule: Q01DX001 (ip), vehicle: other): 87 % of control

O=S(=O)(O)c1cccc2nsnc12
T/C (dose: 100.0 mg/kg/injection, schedule: Q01DX009 (ip), vehicle: Klucel (hydroxypropylcellulose) (HPC)): 107 % of control
T/C (dose: 200.0 mg/kg/injection, schedule: Q01DX009 (ip), vehicle: Klucel (hydroxypropylcellulose) (HPC)): 109 % of control
